# From US20210087565A1, “ANTISENSE ANTIBIOTICS AND BACTERIAL SECRETION BASED DELIVERY SYSTEM TO ELIMINATE DRUG-RESISTANT BACTERIA” (priority 2018, published 2021)
# Entries after “also recorded” stand apart in the source; their conditions may differ. Like-named read-outs stand apart in the source and are kept apart here.
# What was measured:
# [1] = test system: clinical isolates of Enterobacteriaceae; assay: Antibiotic resistance screening (MIC against CLSI breakpoints), all strains; type: cell-based; settings: CLSI 2016-2017 breakpoints
# Experimental: (§1) Phenotypic antibiotic resistance characterization of the clinical isolates was performed to determine “sensitive” (S), “intermediate” (I), and “resistant” (R) phenotypes using the 2016-2017 Clinical & Laboratory Standards Institute (CLSI) sensitive/resistant breakpoint values (Table 4).
# (§2) Antibiotic resistance screening: Sensitive/resistant breakpoints were taken from the 2016-2017 Clinical & Laboratory Standards Institute report (Table 4). Liquid cultures of the clinical strains were diluted to a 0.5 McFarland standard and added to the respective antibiotic test condition. The antibiotic minimum inhibitory concentration (MIC) for each clinical isolate was determined as the lowest antibiotic concentration which prevented visible cell growth for 24 h. Strains were: “sensitive” if the MIC was equal to or below the sensitive-breakpoint concentration, “resistant” if the MIC was greater than or equal to the resistant-breakpoint concentration, and “intermediate” if the MIC was in-between.
# NDM-1 KPN = assay: Antibiotic resistance screening (MIC against CLSI breakpoints); type: cell-based, Klebsiella pneumoniae; settings: meropenem, CLSI 2016-2017 breakpoints
# Experimental: as §1, §2
# CRE E. coli [2] = type: cell-based, Escherichia coli; settings: for S-value (Bliss Independence model): S>0 indicates synergy; for growth with combination therapy (in words): p<0.05
# Experimental: (§3) Combinatorial effects were evaluated using the Bliss Independence model where the S parameter defines a deviation from no interaction as is defined as: […]
# (§4) Where ODAB is the OD at saturation time in only antibiotic, OD0 is the OD at saturation in no treatment, ODPNA is the OD at saturation in only antisense-PNA at 10 μM, and ODAB, PNA is the OD at saturation in a combination of antibiotic and antisense-PNA. Saturation time was determined as the time when the no treatment control reached its saturation growth phase. S>0 is a deviation towards synergy and S<0 is a deviation towards antagonism.
# E. coli MG1655 = assay: Growth curves and CFU of lab strain treated with PNA; type: cell-based, Escherichia coli; settings: 10 μM
# Experimental: FIG. 7. Dose response of various PNA. Optical density of a 1:10,000 dilution of MG6155 from overnight liquid culture, treated with various concentrations of antisense inhibitors was measured for 3 biological replicates with error bars as standard deviations. Normalized growth was measured as the optical density at 22 hours normalized to no treatment. An asterisk (*) indicates a significant difference (p<0.05) as compared to no treatment for each inhibitor.
# FIG. 8. Antisense Inhibitors targeting novel pathways can inhibit growth of E. coli. z. (A) Growth curves of E. coli MG1655 from a 1:10,000 dilution from an overnight culture, normalized to time t=0 with 10 μM of respective antisense inhibitor. […] (B) Colony forming units per milliliter of MG1655 E. coli for respective treatment as a function of time. The CFU/mL at t=0 represents the starting culture after a 1:100,000 dilution from overnight culture. […] Significance is measured as p<0.05.
# (§5) Bacterial Cell culture: The clinical isolates were obtained from the lab of Nancy Madinger at the University of Colorado Anschutz campus. Clinical isolates were grown in Cation Adjusted Mueller Hinton broth (CAMHB) (Becton, Dickinson and Company 212322) at 37° C. with 225 rpm shaking or on solid CAMHB with 1.5% agar at 37° C. Clinical isolates were maintained as freezer stocks in 90% CAMHB, 10% glycerol at −80° C. Freezer stocks were streaked out onto solid CAMHB and incubated for 16 h to produce single colonies prior to experiments. For each biological replicate, a single colony was picked from solid media and grown for 16 h in liquid CAMHB prior to experiments. Non-clinical isolates, such as E. coli MG1655 (ATCC700926) and Salmonella entorica serovar typhimurium SL1344, were cultured in liquid 2% lysogeny broth (LB) or on 2% LB with 1.5% agar for solid plates. S. typhimurium cultures were supplemented with 30 μg/mL streptomycin and SL1344 strains containing plasmids pFPV (SL1344-mCherry) or pRG1 modified with a lacIq promoter (SL1344-Holin) were supplemented with 100 μg/mL ampicillin. Freezer stocks were stored in 60% LB broth, 40% glycerol at −80° C. Freezer stocks were streaked out onto solid LB and incubated for 16 h to produce single colonies before experiments. For biological replicates, single colonies were started in liquid LB and grown for 16 hours prior to experiments. E. coli MG1655 PNA growth experiments were carried out in M9 media (1×M9 minimal media salts solution (MP Biomedicals), 2.0 mM MgSO4, and 0.1 mM CaCl2 in sterile water) with 0.4% glucose.
# PNA growth assay: Biological replicates were diluted 1:10,000 into treatment condition in 384-well plates and measured for 24 h in a Tecan GENios at 562 nm with a bandwidth of 35 nm. Media absorbance blanks were subtracted from data prior to analysis. […]
# ESBL KPN [3] = assay: Potentiation of antibiotics with PNAs (Bliss Independence); type: cell-based, Klebsiella pneumoniae; settings: 10 μM PNA + 2 μg/mL tetracycline; for S-value (Bliss Independence model): S>0 indicates synergy
# Experimental: as §3, §4
# ESBL KPN [4] = assay: PNA growth assay (optical density) on clinical isolate; type: cell-based, Klebsiella pneumoniae; settings: for monotherapy effect (in words): 10 μM
# Experimental: as §5
# (§6) PNA growth assay: Biological replicates were diluted 1:10,000 into treatment condition in 384-well plates and measured for 24 h in a Tecan GENios at 562 nm with a bandwidth of 35 nm. Media absorbance blanks were subtracted from data prior to analysis. Normalized optical density (OD) data is shown normalized to the time point where the “no treatment” growth curves reached saturation phase which varied across biological replicates.
# CRE E. coli [5] = assay: as above; type: cell-based, Escherichia coli; settings: for growth inhibition: 10 μM PNA, optical density vs no treatment at 16 hours
# Experimental: as §5, §6
# MDR E. coli = assay: as above; type: cell-based, Escherichia coli; settings: for growth inhibition: 10 μM PNA, optical density vs no treatment at 16 hours
# Experimental: as §5, §6
# MDR STm = assay: as above; type: cell-based, Salmonella enterica serovar typhimurium; settings: MDR STm; 10 μM PNA; optical density vs no treatment at 16 hours
# Experimental: as §5, §6
# SL1344 = assay: Growth inhibition of SL1344 in broth culture; type: cell-based, Salmonella enterica serovar typhimurium; settings: 10 μM, 24 hours
# Experimental: FIG. 25. α-recA growth inhibition of SL1344. Optical density was measured at 600 nm in 50 μL cultures and normalized optical density is reported at 24 hours as absorbance at 600 nm minus media blank and each biological replicate normalized to the optical density reading at time zero. Overnight cultures of SL1344 were diluted 1:10,000 and treated with 10 μM addition of α-recA for 24 hours. Error bars indicate standard deviation of n=3 biological replicates.
# [6] = test system: SL1344-mCherry in HeLa cells; assay: Double infection of HeLa cells, PNA delivery and release by SL1344-Holin; type: cell-based, Salmonella enterica serovar typhimurium
# Experimental: FIG. 14. Combining the bacterial Type III secretion system (T3SS) and the holing/endolysin kill switch for PNA delivery and release. (A) Schematic showing the PNA deliver and release approach using the T3SS and Holin systems respectively to treat an intracellular infection of HeLa cells. HeLa cells were seeded 24 hours prior to infection. A 4:1 mixture of SL1344-Holin to SL1344-mCherry cells with (Bottom) and without (Top) 45 minute PNA pretreatment used to infect HeLa cells for 45 minutes. (Bottom) The PNA enters SL1344-Holin during the 45 minute pretreatment and is carried into the HeLa cell during infection. Following infection and gentamicin protection, the PNA is released from the SL1344-Holin during the 18-hours of treatment to target the SL1344-mCherry population. After 18-hours of incubation the HeLa cells are lysed to determine the number of intracellular colony forming units. (B) Normalized intracellular bacterial load represented as the ratio of normalized SL1344-mCherry:
# To that end, the present inventors built a “delivery strain” of Salmonella by expressing the holin lysis cassette, encoding a holin-antiholin according to SEQ ID NO. 34, under control of an inducible laciQ promoter (referred to as SL1344-Holin, FIG. 24), and a therapeutic “target strain” of Salmonella by expressing mCherry from a plasmid in SL1344 (referred to as SL1344-mCherry). The present inventors followed the same infection protocol as described above with few modifications and treated cells with a different PNA, α-recA (N′-[…]-AEEA-[…]-C′), to show the generalizability of the assay. […] As with the previous experiment, the present inventors allowed the Salmonella to uptake the PNA during a 45 minute incubation where the treatment condition (referred to as T3SS-PNA) consisted of SL1344-Holin incubated with 10 μM of α-recA in phosphate buffer saline (PBS) and the no treatment was incubated in only PBS. In parallel, equal cell densities of the target strain SL1344-mCherry was incubated with PBS for 45-minutes. SL1344-Holin (with or without PNA) and SL1344-mCherry cells were washed and mixed in a ratio of 4:1 respectively to achieve a final total MOI of approximately 10:1 for infection of HeLa cells. The infection was carried out for 45 minutes followed by the removal of extracellular bacteria using a gentamicin wash (FIG. 5A), and 18 hours of incubation in fresh growth medium containing gentamicin. […] To account for this variation, the present inventors measured the extracellular and intracellular bacterial load before and after infection respectively and reported the normalized ratio of the latter to the former (FIG. 5B-C, FIG. 26). […]
# [7] = 10 μM PNA + chloramphenicol 8 μg/mL
molecule,measurement,setting,value
CO/N=C(\C(=O)N[C@@H]1C(=O)N2C(C(=O)O)=C(CSc3nc(=O)c(=O)[nH]n3C)CS[C@H]12)c1csc(N)n1 [ceftriaxone],antibiotic resistance phenotype,[1]; ceftriaxone,resistant
C[C@@H](O)[C@H]1C(=O)N2C(C(=O)O)=C(S[C@@H]3CN[C@H](C(=O)N(C)C)C3)[C@H](C)[C@H]12 [meropenem],antibiotic resistance phenotype,NDM-1 KPN,resistant
"α-gyrB: 12-mer antisense PNA GTTGATGTCGAA (SEQ ID NO. 18) targeting gyrB, conjugated to (KFF)3K cell penetrating peptide via AEEA-linker (all peptide nucleic acid (PNA); (KFF)3K cell-penetrating peptide attached via AEEA linker)",S-value (Bliss Independence model),CRE E. coli [2]; [7],0.27
same,growth with combination therapy (in words),CRE E. coli [2]; [7],significant growth inhibition with combination therapy compared to each monotherapy
same,S-value (Bliss Independence model),CRE E. coli [2]; 10 μM PNA + gentamicin 4 μg/mL,0.19
same,growth with combination therapy (in words),CRE E. coli [2]; 10 μM PNA + gentamicin 4 μg/mL,significant growth inhibition with combination therapy compared to each monotherapy
same,effect on growth (in words),E. coli MG1655,effective in killing
same,growth with combination therapy (in words),ESBL KPN [3],significant growth inhibition compared to each monotherapy
same,S-value (Bliss Independence model),ESBL KPN [3],positive
same,monotherapy effect (in words),ESBL KPN [4],no or minimal growth inhibition
same,growth inhibition,"ESBL KPN [4]; 10 μM PNA, optical density vs no treatment at 16 hours",5±1.4%
same,monotherapy effect (in words),CRE E. coli [5]; 10 μM,partial therapeutic effect; also recorded: effective in killing
same,growth inhibition,CRE E. coli [5],71±12%
same,monotherapy effect (in words),MDR E. coli,effective in killing
same,growth inhibition,MDR E. coli,36±14.2%
same,growth inhibition,MDR STm,74±15.4%
N′-KFFKFFKFFK-AEEA-GTCGATAGCAT-C′ [α-recA],effect on Salmonella in broth cultures (in words),SL1344,lethal
same,drop of normalized ratio of SL1344-mCherry to SL1344-Holin,"[6]; SL1344-Holin pretreated 45 minutes with 10 μM PNA, HeLa cells, 18 hours, compared to no treatment",99.6±0.72%
same,fate of target strain SL1344-mCherry (in words),"[6]; two out of three biological replicates, across a range of MOI",completely eliminated
same,normalized mCherry/Holin (in words),"[6]; with 1 mM IPTG during treatment, p=0.006",Significant decrease
same,normalized mCherry/Holin (in words),"[6]; without IPTG (leaky expression), p=0.026",Significant decrease
"α-ffh: 12-mer antisense PNA GACAATGTTTGA (SEQ ID NO. 16) targeting ffh, conjugated to (KFF)3K cell penetrating peptide via AEEA-linker (all peptide nucleic acid (PNA); (KFF)3K cell-penetrating peptide attached via AEEA linker)",growth with combination therapy (in words),ESBL KPN [3],significant growth inhibition compared to each monotherapy
same,S-value (Bliss Independence model),ESBL KPN [3],positive
same,monotherapy effect (in words),ESBL KPN [4],no or minimal growth inhibition
same,growth inhibition,CRE E. coli [5],98±1.5%
same,growth inhibition,MDR E. coli,99±0.9%
same,growth inhibition,MDR STm,99±0.8%
CC1(C)S[C@@H]2[C@H](NC(=O)[C@H](N)c3ccccc3)C(=O)N2[C@H]1C(=O)O [ampicillin],antibiotic resistance phenotype,[1]; ampicillin,resistant
